The subject of one series is white-footed ants. Description: Two-choice, random-order preference tests on exterior walls. The series is classed as in vivo, Technomyrmex albipes. On the procedure: Two commercial ready-to-use (RTU) ant baits and several sugar solutions were tested with and without active ingredients, including 10,000 ppm DOT (Uncle Albert's Super Smart Ant Bait®, A Safe Pest Eliminators, Inc., Miami, Fla.) and 10,000 ppm orthoboric acid (Drax Liquidator®, Waterbury Companies, Inc., Waterbury, Conn.). Sugar water solutions tested included: 100,000 ppm, 150,000 ppm, 200,000 ppm, 250,000 ppm, 350,000 ppm, 400,000 ppm, and 500,000 ppm sucrose (Publix Supermarkets, […] and 500,000 ppm fructose (Fisher Scientific, Pittsburgh, Pa.), 250,000 ppm maltose (Fisher Scientific). Four insect bait formulations of the invention (ND 1, ND2, ND3, ND4, see Table II) were also tested against sugars and commercial baits. […] Borax, Los Angeles, Calif.). Glass shell vials (6-ml capacity) with […] plastic caps (Fisher Scientific) were used for bait containers. Vials were modified for use as bait containers by drilling holes (6 mm) in the caps, inserting cotton dental wicks, which minimize bait desiccation and entrapment by ants, adding 4.5-ml solution, and using […]® (Pacer Technology, Rancho Cucamonga, Calif.) adhesive putty to hold the vials on the walls. Each test consisted of 5 bait vial pairs placed in 2 columns (FIG. 1). […] Nine counts of ants on each wick were taken approximately every 30 minutes over 4.5 hours. When the numbers of ants could not be counted visually, digital photographs were taken, and counts were taken from a computer display. Data were analyzed using t-Test and Mann-Whitney Rank Sum Tests at P=0.05.

The test system of series [1] is T. Albipes adults. The conditions noted are these: first trial, non-forced bioassay, means of 5 replicates. An excerpt: White-footed ants were collected from a stand of Phoenix roebelenii palms at the University of Florida Fort Lauderdale Research and Education Center (Broward Co., FL). Adult ants and brood were collected from nesting sites in palm thatch between 9 a.m. and 3 p.m., when most of the foragers are in the nests. The thatch was placed in a plastic 100-liter garbage pail through a 28-cm hole cut into the center of its lid. The upper portions of the interior sides of the pail were coated with a petroleum jelly (Vaseline® London, UK) to retard the ants' escape.
Infested thatch material was taken from the garbage pail, placed in the container, covered with 1×15-cm strips of wood and a separator sheet of 3-mm polycarbonate with 2-mm holes. Dripping water from a 2-1 tank suspended over the container forced the ants to leave the thatch and enter nesting tubes (10×75 mm clear polystyrene test tubes) (Fisher Scientific, Pittsburgh, Pa.), filled at the bottom with a small cotton ball soaked with sugar water, and completely covered with aluminum foil.
Nalgene™ reusable plastic utility boxes with lids ([…]) (Fisher Scientific, Pittsburgh, Pa.) were used to hold white-footed ant colonies for laboratory tests (FIG. 4). Nesting tubes with about 200 ants and dozens of brood were placed into each box, held in place with a small amount of Handi-Tak®. Ants were provisioned with water by placing a small cotton ball moistened with approximately 2-ml deionized water in a 41×41×8 mm plastic weighing boat.
Five holes (0.86 mm ID) were drilled into the caps. Vials were filled with 4.5 ml bait solution, inverted, and attached to the sides of the boxes with Handi-Tak® (FIG. 3). Sugar water was fed ad libitum to the ants at all times and supplemented twice weekly by live termites or canned chicken for protein. A felt pad was placed under each vial to catch errant drops and prevent ants from being entrapped in their sticky residue. Ants were allowed to acclimatize in boxes for several weeks. Each day dead ants were removed and replaced with live ants. When ant populations appeared stable, treatments were applied. No ants were added during the experiment.
Fourteen treatments (5 replicates each, assigned randomly) were applied to the ants in boxes. […] The suspension of XR-007 was placed into a plastic weighing boat (0.5 g), and replaced twice a week or when it desiccated. One corner was cut away to allow for easier access by the ants.
Both vials had felt pads under them. Boxes with gels had the gels in weighing boats. The boats were on the left side of the box, and the untreated sugar water vials were on the right side. […] This was accomplished by adding 0.17-ml to panels and distributing the solution evenly with a fine paintbrush previously saturated in solution. One-half g XR-007 and indoxacarb in honey were placed into the bulb of 9.3-ml large-tip opening transfer pipettes (having had 8-cm cut back from the tip, Samco®b, San Fernando, Calif.).
Dead ants were removed and counted daily for the first week, then twice weekly thereafter. At the end of the experiment, all ants still living were killed with ethanol and counted to determine the total number of ants in each box. […] Mean percent mortalities were analyzed by ANOVA (analysis of variance) and general linear model (SAS Institute, 1989 SAS/STAT user's guide, version 6, 4th ed. SAS Institute, Cary, N.C.) and means separated using Student-Newman-Keals test at P<0.05.
Mortality for the first trial was recorded for 51 days.

Series [2] has as its system T. Albipes adults. The experiment in a line: Laboratory efficacy test, second trial (non-forced bioassay, 15 treatments). The series is classed as in vivo, Technomyrmex albipes. The conditions noted are these: means of 5 replicates. On the procedure:
When ant populations appeared stable, treatments were applied. No ants were added during the experiment.
Surface treatments included 1,200 ppm fipronil (Termidor®& SC), 500 ppm indoxacarb (DuPont, Wilmington, Del.), 500 ppm deltamethrin (DeltaDust®, Aventis Environmental Science), and 600 ppm lambda cyhalothrin (Demand®V CS, Syngenta Crop Protection).
Both vials had felt pads under them. Boxes with gels had the gels in weighing boats.
Mortality for the second trial was recorded for 47 days.

[3] abbreviates: test 18: 25% Sucrose vs. 25% Maltose, P=0.852.
The mark [4] stands for this setting: test 19: 25% Sucrose vs. 25% Glucose, P=0.463.
[5] abbreviates: test 17: 50% Fructose vs. 50% Glucose, P=0.817.

Several values for one entry are separate records, joined by “and”; a condition that tells them apart may be missing. Identical values can stand only once. Like-named read-outs stand apart in the source and are kept apart here.

On to `O.O.O.O.O=BOB1OB(OB=O)OB2OB([O-])OB([O-])OB(O1)O2.[Na+].[Na+]` [DOT, disodium octaborate tetrahydrate], for which, in the series with white-footed ants (tests 24-30: 25% Sucrose vs. 25% Sucrose + 1% to 7% DOT in 1% increments, P=0.218 to 0.916), the “preference in binary choice test (counts of ants on wicks)” value (from here on “preference in binary choice test”) is “no observed preferences”.

In the case of `N#Cc1nn(-c2c(Cl)cc(C(F)(F)F)cc2Cl)c(N)c1[S+]([O-])C(F)(F)F` (stereo not drawn) [Fipronil, fipronil], the “Mean percent Mortality (+/SD) of T. Albipes adults” value (“Mean percent Mortality (+/SD)” below) in the series with T. Albipes adults [1] (1 day exposure) is on record as 0.98 ± 0.70b %; with T. Albipes adults [1] (3 days exposure) it was 3.46 ± 1.38cd %; in the series on T. Albipes adults [1] (7 days exposure) it was 6.76 ± 2.25e %; with T. Albipes adults [1] (30 days exposure), 27.88 ± 5.89bc %; with T. Albipes adults [1] (51 days exposure), 53.76 ± 10.84b %.

Consider spinosad, for which the “Mean percent Mortality (+/SD)” value in the series with T. Albipes adults [1] (1 day exposure) turned out to be 1.01 ± 0.87b %; in the series with T. Albipes adults [1] (3 days exposure), 2.02 ± 0.83d %; in the series on T. Albipes adults [1] (7 days exposure) it was 3.78 ± 1.85e %; with T. Albipes adults [1] (30 days exposure), 16.15 ± 3.78c %; in the series with T. Albipes adults [1] (51 days exposure) it was 34.51 ± 2.42cd %.

For `O=[N+]([O-])NC1=NCCN1Cc1ccc(Cl)nc1` [Imidacloprid], the “Mean percent Mortality (+/SD)” value in the series on T. Albipes adults [1] (1 day exposure) was 5% and 4.92 ± 4.02ab %; in the series on T. Albipes adults [1] (7 days exposure), 29.84 ± 10.63bc %; in the series on T. Albipes adults [1] (7 days exposure, listed as Irnidacloprid) it was 30%; with T. Albipes adults [1] (30 days exposure) it was 79% and 78.55 ± 4.83a %; in the series on T. Albipes adults [1] (51 days exposure), 91% and 90.86 ± 5.43a %.

Consider `OC[C@H]1O[C@H](O[C@H]2[C@H](O)[C@@H](O)C(O)O[C@@H]2CO)[C@H](O)[C@@H](O)[C@@H]1O` (mixture of isomers) [maltose], for which the “preference in binary choice test” value with white-footed ants (setting [3]) is recorded as “no significant preferences”.

Take `CN1COCN(Cc2cnc(Cl)s2)/C1=N\[N+](=O)[O-]` [Thiamethoxam 10 ppm, Thiamethoxam]: the “Mean percent Mortality (+/SD)” value with T. Albipes adults [1] (1 day exposure) was 4% and 4.44 ± 2.26ab %; with T. Albipes adults [1] (1 day exposure, listed as Thiamethoxam 1 ppm), 1.66 ± 1.17b %; in the series on T. Albipes adults [1] (3 days exposure), 18.33 ± 8.49b %; in the series with T. Albipes adults [1] (3 days exposure, listed as Thiamethoxam 1 ppm) it was 3.64 ± 2.80cd %; with T. Albipes adults [1] (7 days exposure), 39% and 38.81 ± 11.13b %; in the series on T. Albipes adults [1] (7 days exposure, listed as Thiamethoxam 1 ppm), 6.44 ± 4.73e %. Besides, the “Mean percent Mortality (+/SD)” value with T. Albipes adults [1] (30 days exposure) is 65% and 64.77 ± 15.51a %; in the series with T. Albipes adults [1] (30 days exposure, listed as Thiamethoxam 1 ppm), 19.73 ± 9.98c %; in the series with T. Albipes adults [1] (51 days exposure), 84% and 84.40 ± 10.09a %; in the series on T. Albipes adults [1] (51 days exposure, listed as Thiamethoxam 1 ppm), 44.02 ± 13.73bcd %.

With `OC[C@H]1O[C@@](CO)(O[C@H]2O[C@H](CO)[C@@H](O)[C@H](O)[C@H]2O)[C@@H](O)[C@@H]1O` [sucrose], the “preference in binary choice test” value is recorded as “highly preferred” in the series with white-footed ants (test 1: 10% Sucrose vs. water, P<0.001); “preferred” in the series on white-footed ants (test 3: 25% Sucrose vs. 10% Sucrose, P<0.05); “preferred” in the series with white-footed ants (test 4: 25% Sucrose vs. 25% Fructose, P<0.001); “preferred” with white-footed ants (test 5: 25% Sucrose vs. 15% Sucrose, P<0.05); “preferred” in the series with white-footed ants (test 6: 25% Sucrose vs. 20% Sucrose, P<0.05); “preferred” in the series with white-footed ants (test 7: 40% Sucrose vs. ND1, P=0.002). The “preference in binary choice test” value is “no significant preferences” with white-footed ants (test 13: 25% Sucrose vs. Uncle Albert's Super Smart Ant Bait (no active ingredient), P=0.458); “no significant preference” with white-footed ants (test 15: 25% Sucrose vs. 50% Sucrose, P=0.112); “no significant preferences” in the series on white-footed ants (setting [3]); “no significant preferences” with white-footed ants (setting [4]).

`O=C(CO)[C@@H](O)[C@H](O)[C@H](O)CO` [fructose]: the “preference in binary choice test” value in the series on white-footed ants (test 2: 25% Fructose vs. 25% Maltose, P=0.033) is listed as “preferred”; in the series with white-footed ants (test 14: 25% Fructose vs. Drax Liquidator (no active ingredient), P=0.580) it was “no significant preferences”; with white-footed ants (test 16: 25% Fructose vs. Uncle Albert's Super Smart Ant Bait (no active ingredient), P 0.057), “no significant preferences”; in the series on white-footed ants (setting [5]) it was “no significant preferences”.

Regarding `COC(=O)N(C(=O)N1CO[C@@]2(C(=O)OC)Cc3cc(Cl)ccc3C2=N1)c1ccc(OC(F)(F)F)cc1` [DPX surface, indoxacarb], the “Mean % mortality (+/SD) of T. albipes adults” value with T. Albipes adults [2] (1 day exposure) is 2.19 ± 2.42bcd %; in the series with T. Albipes adults [2] (2 days exposure) it was 2.56 ± 2.51c %; in the series on T. Albipes adults [2] (8 days exposure), 5.61 ± 4.96c %; in the series on T. Albipes adults [2] (29 days exposure), 16.59 ± 12.72de %; in the series on T. Albipes adults [2] (47 days exposure) it was 27.87 ± 14.59e %.

Consider `O=C[C@H](O)[C@@H](O)[C@H](O)[C@H](O)CO` [glucose], for which the “preference in binary choice test” value in the series with white-footed ants (setting [5]) and in the series with white-footed ants (setting [4]) was “no significant preferences” in each case.
